{"source": "PubChem BioAssay AID1963969", "about": "(Molecular Pharmacology Branch, DTP, NCI, 2024);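 further: spheroids exposed to agents for seven days before readout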;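 on viability, T/C: percent of vehicle DMSO control viability which is 100%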", "test_system": "817829-284-R-J1-PDC multi-cell spheroid viability", "assay": "Anticancer human tumor 817829-284-R-J1-PDC patient-derived colon adenocarcinoma cell line growth inhibition [PI3K]", "conditions": "for IC50: curve of first compound; for viability, T/C: stronger effect = lower value", "how_it_was_run": "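Complex 3D spheroids (cancer cells + endothelial HUVEC + mesenchymal stem cells); drug pairs of targeted agent x inavolisib/alpelisib/duvelisib/copanlisib; half-log series from ~Cmax, max 10 microM if Cmax unknown; endpoint viability.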", "key": {"[1]": {"conditions": "second compound 0.0316 µM, first compound 0.0316 µM"}, "[2]": {"conditions": "second compound 0.0316 µM, first compound 0.1 µM"}, "[3]": {"conditions": "second compound 0.0316 µM, first compound 0.316 µM"}, "[4]": {"conditions": "second compound 0.0316 µM, first compound 1 µM"}, "[5]": {"conditions": "second compound 0.0316 µM, first compound 3.16 µM"}, "[6]": {"conditions": "second compound 0.0316 µM, first compound 10 µM"}, "[7]": {"conditions": "second compound 0.1 µM, first compound 0.0316 µM"}, "[8]": {"conditions": "second compound 0.1 µM, first compound 0.1 µM"}, "[9]": {"conditions": "second compound 0.1 µM, first compound 0.316 µM"}, "[10]": {"conditions": "second compound 0.1 µM, first compound 1 µM"}, "[11]": {"conditions": "second compound 0.1 µM, first compound 3.16 µM"}, "[12]": {"conditions": "second compound 0.1 µM, first compound 10 µM"}, "[13]": {"conditions": "second compound 0.316 µM, first compound 0.0316 µM"}, "[14]": {"conditions": "second compound 0.316 µM, first compound 0.1 µM"}, "[15]": {"conditions": "second compound 0.316 µM, first compound 0.316 µM"}, "[16]": {"conditions": "second compound 0.316 µM, first compound 1 µM"}, "[17]": {"conditions": "second compound 0.316 µM, first compound 3.16 µM"}, "[18]": {"conditions": "second compound 0.316 µM, first compound 10 µM"}, "[19]": {"conditions": "second compound 1 µM, first compound 0.0316 µM"}, "[20]": {"conditions": "second compound 1 µM, first compound 0.1 µM"}, "[21]": {"conditions": "second compound 1 µM, first compound 0.316 µM"}, "[22]": {"conditions": "second compound 1 µM, first compound 1 µM"}, "[23]": {"conditions": "second compound 1 µM, first compound 3.16 µM"}, "[24]": {"conditions": "second compound 1 µM, first compound 10 µM"}, "[25]": {"conditions": "second compound 3.16 µM, first compound 0.0316 µM"}, "[26]": {"conditions": "second compound 3.16 µM, first compound 0.1 µM"}, "[27]": {"conditions": "second compound 3.16 µM, first compound 0.316 µM"}, "[28]": {"conditions": "second compound 3.16 µM, first compound 1 µM"}, "[29]": {"conditions": "second compound 3.16 µM, first compound 3.16 µM"}, "[30]": {"conditions": "second compound 3.16 µM, first compound 10 µM"}, "[31]": {"conditions": "second compound 10 µM, first compound 0.0316 µM"}, "[32]": {"conditions": "second compound 10 µM, first compound 0.1 µM"}, "[33]": {"conditions": "second compound 10 µM, first compound 0.316 µM"}, "[34]": {"conditions": "second compound 10 µM, first compound 1 µM"}, "[35]": {"conditions": "second compound 10 µM, first compound 3.16 µM"}, "[36]": {"conditions": "second compound 10 µM, first compound 10 µM"}}}
{"smiles": "CC(Cn1ccc(-c2ccc(C#N)c(Cl)c2)n1)NC(=O)c1cc(C(C)O)[nH]n1", "note": "(centres undefined) + Cc1nc(NC(=O)N2CCCC2C(N)=O)sc1-c1ccnc(C(C)(C)C(F)(F)F)c1", "values": [{"measurement": "IC50", "setting": "second compound 0.0316 µM", "value": "> 10", "unit": "µM"}, {"measurement": "IC50", "setting": "second compound 0.1 µM", "value": "< 0.0316", "unit": "µM"}, {"measurement": "IC50", "setting": "second compound 0.316 µM", "value": "> 10", "unit": "µM"}, {"measurement": "IC50", "setting": "second compound 1 µM", "value": 2.62, "unit": "µM"}, {"measurement": "IC50", "setting": "second compound 3.16 µM", "value": "> 10", "unit": "µM"}, {"measurement": "IC50", "setting": "second compound 10 µM", "value": "< 0.0316", "unit": "µM"}, {"measurement": "viability, T/C", "setting": "[1]", "value": 72.1, "unit": "%"}, {"measurement": "viability, T/C", "setting": "[2]", "value": 92.1, "unit": "%"}, {"measurement": "viability, T/C", "setting": "[3]", "value": 118, "unit": "%"}, {"measurement": "viability, T/C", "setting": "[4]", "value": 82.5, "unit": "%"}, {"measurement": "viability, T/C", "setting": "[5]", "value": 64.8, "unit": "%"}, {"measurement": "viability, T/C", "setting": "[6]", "value": 67.4, "unit": "%"}, {"measurement": "viability, T/C", "setting": "[7]", "value": 42.2, "unit": "%"}, {"measurement": "viability, T/C", "setting": "[8]", "value": 81.5, "unit": "%"}, {"measurement": "viability, T/C", "setting": "[9]", "value": 96.1, "unit": "%"}, {"measurement": "viability, T/C", "setting": "[10]", "value": 103, "unit": "%"}, {"measurement": "viability, T/C", "setting": "[11]", "value": 85.2, "unit": "%"}, {"measurement": "viability, T/C", "setting": "[12]", "value": 71.1, "unit": "%"}, {"measurement": "viability, T/C", "setting": "[13]", "value": 56.9, "unit": "%"}, {"measurement": "viability, T/C", "setting": "[14]", "value": 94.3, "unit": "%"}, {"measurement": "viability, T/C", "setting": "[15]", "value": 72.3, "unit": "%"}, {"measurement": "viability, T/C", "setting": "[16]", "value": 72.1, "unit": "%"}, {"measurement": "viability, T/C", "setting": "[17]", "value": 75.8, "unit": "%"}, {"measurement": "viability, T/C", "setting": "[18]", "value": 54.4, "unit": "%"}, {"measurement": "viability, T/C", "setting": "[19]", "value": 53.1, "unit": "%"}, {"measurement": "viability, T/C", "setting": "[20]", "value": 89.8, "unit": "%"}, {"measurement": "viability, T/C", "setting": "[21]", "value": 80.5, "unit": "%"}, {"measurement": "viability, T/C", "setting": "[22]", "value": 71.5, "unit": "%"}, {"measurement": "viability, T/C", "setting": "[23]", "value": 42.1, "unit": "%"}, {"measurement": "viability, T/C", "setting": "[24]", "value": 49.5, "unit": "%"}, {"measurement": "viability, T/C", "setting": "[25]", "value": 66.7, "unit": "%"}, {"measurement": "viability, T/C", "setting": "[26]", "value": 55.2, "unit": "%"}, {"measurement": "viability, T/C", "setting": "[27]", "value": 50.1, "unit": "%"}, {"measurement": "viability, T/C", "setting": "[28]", "value": 89.7, "unit": "%"}, {"measurement": "viability, T/C", "setting": "[29]", "value": 42, "unit": "%"}, {"measurement": "viability, T/C", "setting": "[30]", "value": 57.2, "unit": "%"}, {"measurement": "viability, T/C", "setting": "[31]", "value": 55.8, "unit": "%"}, {"measurement": "viability, T/C", "setting": "[32]", "value": 31.7, "unit": "%"}, {"measurement": "viability, T/C", "setting": "[33]", "value": 47.2, "unit": "%"}, {"measurement": "viability, T/C", "setting": "[34]", "value": 40.9, "unit": "%"}, {"measurement": "viability, T/C", "setting": "[35]", "value": 59.4, "unit": "%"}, {"measurement": "viability, T/C", "setting": "[36]", "value": 35, "unit": "%"}]}
{"smiles": "Cn1nccc1Nc1nccc(-c2ccn(C(CO)c3ccc(Cl)c(F)c3)c(=O)c2)n1", "note": "(centres undefined) + Cc1nc(NC(=O)N2CCCC2C(N)=O)sc1-c1ccnc(C(C)(C)C(F)(F)F)c1", "values": [{"measurement": "IC50", "setting": "second compound 0.0316 µM", "value": 7.87, "unit": "µM"}, {"measurement": "IC50", "setting": "second compound 0.1 µM", "value": 4.8, "unit": "µM"}, {"measurement": "IC50", "setting": "second compound 0.316 µM", "value": 6.44, "unit": "µM"}, {"measurement": "IC50", "setting": "second compound 1 µM", "value": 4.65, "unit": "µM"}, {"measurement": "IC50", "setting": "second compound 3.16 µM", "value": 4.88, "unit": "µM"}, {"measurement": "IC50", "setting": "second compound 10 µM", "value": 4.81, "unit": "µM"}, {"measurement": "viability, T/C", "setting": "[1]", "value": 83, "unit": "%"}, {"measurement": "viability, T/C", "setting": "[2]", "value": 66.9, "unit": "%"}, {"measurement": "viability, T/C", "setting": "[3]", "value": 92.2, "unit": "%"}, {"measurement": "viability, T/C", "setting": "[4]", "value": 90.7, "unit": "%"}, {"measurement": "viability, T/C", "setting": "[5]", "value": 81.6, "unit": "%"}, {"measurement": "viability, T/C", "setting": "[6]", "value": 41.6, "unit": "%"}, {"measurement": "viability, T/C", "setting": "[7]", "value": 79.8, "unit": "%"}, {"measurement": "viability, T/C", "setting": "[8]", "value": 77.3, "unit": "%"}, {"measurement": "viability, T/C", "setting": "[9]", "value": 76.3, "unit": "%"}, {"measurement": "viability, T/C", "setting": "[10]", "value": 75.3, "unit": "%"}, {"measurement": "viability, T/C", "setting": "[11]", "value": 63.2, "unit": "%"}, {"measurement": "viability, T/C", "setting": "[12]", "value": 26.6, "unit": "%"}, {"measurement": "viability, T/C", "setting": "[13]", "value": 87.8, "unit": "%"}, {"measurement": "viability, T/C", "setting": "[14]", "value": 99.5, "unit": "%"}, {"measurement": "viability, T/C", "setting": "[15]", "value": 72, "unit": "%"}, {"measurement": "viability, T/C", "setting": "[16]", "value": 74.6, "unit": "%"}, {"measurement": "viability, T/C", "setting": "[17]", "value": 81.6, "unit": "%"}, {"measurement": "viability, T/C", "setting": "[18]", "value": 30.6, "unit": "%"}, {"measurement": "viability, T/C", "setting": "[19]", "value": 68.6, "unit": "%"}, {"measurement": "viability, T/C", "setting": "[20]", "value": 69, "unit": "%"}, {"measurement": "viability, T/C", "setting": "[21]", "value": 62.1, "unit": "%"}, {"measurement": "viability, T/C", "setting": "[22]", "value": 107, "unit": "%"}, {"measurement": "viability, T/C", "setting": "[23]", "value": 60.9, "unit": "%"}, {"measurement": "viability, T/C", "setting": "[24]", "value": 28.5, "unit": "%"}, {"measurement": "viability, T/C", "setting": "[25]", "value": 54.2, "unit": "%"}, {"measurement": "viability, T/C", "setting": "[26]", "value": 102, "unit": "%"}, {"measurement": "viability, T/C", "setting": "[27]", "value": 86.1, "unit": "%"}, {"measurement": "viability, T/C", "setting": "[28]", "value": 87.3, "unit": "%"}, {"measurement": "viability, T/C", "setting": "[29]", "value": 67.3, "unit": "%"}, {"measurement": "viability, T/C", "setting": "[30]", "value": 21.6, "unit": "%"}, {"measurement": "viability, T/C", "setting": "[31]", "value": 109, "unit": "%"}, {"measurement": "viability, T/C", "setting": "[32]", "value": 103, "unit": "%"}, {"measurement": "viability, T/C", "setting": "[33]", "value": 101, "unit": "%"}, {"measurement": "viability, T/C", "setting": "[34]", "value": 94.2, "unit": "%"}, {"measurement": "viability, T/C", "setting": "[35]", "value": 69, "unit": "%"}, {"measurement": "viability, T/C", "setting": "[36]", "value": 16.4, "unit": "%"}]}
